The results in this text go back to ChEMBL document CHEMBL4825666, “Antitrypanosomal Lactones from Nectandra barbellata” (J Nat Prod, 2021).

Data set [1] in a line: Selectivity index, ratio of CC50 for cytotoxicity against mouse NCTC clone 929 cells to IC50 for trypomastigote forms of Trypanosoma cruzi Y infected in LLC-MK2 cells. The format is toxicity, cell-based. The following applies: read-out: Ratio CC50/IC50.
Data set [2] in a line: Cytotoxicity against mouse NCTC clone 929 cells assessed as reduction in cell viability after 48 hrs by MTT assay. Format: cell-based.
Data set [3] relates to Trypanosoma cruzi. In words: Antitrypanosomal activity against trypomastigote forms of Trypanosoma cruzi Y infected in LLC-MK2 cells assessed as parasite growth inhibition by resazurin assay. Format: functional, organism-based.
For another data set, the target named is Cytochrome P450 2C19 (Homo sapiens, UniProt P33261). In words: Inhibition of CYP2C19 (unknown origin). The format is ADME.
A further data set addresses Cytochrome P450 2C9 (Homo sapiens, UniProt P11712). In words: Inhibition of CYP2C9 (unknown origin). Format: ADME.
A further data set has as its target Cytochrome P450 2D6 (Homo sapiens, UniProt P10635). As to the kind of experiment: Inhibition of CYP2D6 (unknown origin). The format is ADME.
Data set [4] relates to Cell membrane. As to the kind of experiment: Induction of plasma membrane depolarization in trypomastigote forms of Trypanosoma cruzi Y at IC50 measured after 2 hrs by DiSBAC2(3)-probe based assay.
A further data set concerns the target Cytochrome P450 3A4 (Homo sapiens, UniProt P08684). In words: Inhibition of CYP3A4 (unknown origin). The format is ADME.
The target of another data set is T1, Cytochrome P450 1A2 (Homo sapiens, UniProt P05177).
T1 sequence (P05177 whole entry): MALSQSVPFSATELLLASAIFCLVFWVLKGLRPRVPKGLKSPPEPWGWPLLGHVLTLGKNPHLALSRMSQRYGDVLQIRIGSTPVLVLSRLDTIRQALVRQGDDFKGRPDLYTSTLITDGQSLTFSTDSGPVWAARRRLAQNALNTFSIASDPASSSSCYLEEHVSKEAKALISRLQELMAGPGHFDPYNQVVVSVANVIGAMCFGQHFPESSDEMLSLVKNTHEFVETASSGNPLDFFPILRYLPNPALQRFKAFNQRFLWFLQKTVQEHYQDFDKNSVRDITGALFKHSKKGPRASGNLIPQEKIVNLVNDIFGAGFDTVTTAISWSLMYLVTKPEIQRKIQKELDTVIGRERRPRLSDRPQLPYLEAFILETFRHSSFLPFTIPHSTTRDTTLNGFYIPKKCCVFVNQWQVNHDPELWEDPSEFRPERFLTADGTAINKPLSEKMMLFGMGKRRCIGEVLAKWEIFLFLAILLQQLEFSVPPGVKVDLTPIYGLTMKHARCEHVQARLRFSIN
In words: Inhibition of CYP1A2 (unknown origin). The format is ADME.

In data set [5] the test system is Trypanosoma cruzi. In words: Induction of mitochondrial membrane depolarization in trypomastigote forms of Trypanosoma cruzi Y at IC50 measured after 2 hrs by JC-1 staining based flow cytometry. Format: functional, organism-based.
Data set [6] has as its system Trypanosoma cruzi. As to the kind of experiment: Induction of acidocalcisome alkalinization in trypomastigotes form of Trypanosoma cruzi Y assessed as upregulation of Ca2+ level at IC50 using acridine orange measured after 60 min by fluorescent based assay.
Data set [7] has as its system Trypanosoma cruzi. As to the kind of experiment: Induction of ROS generation in trypomastigote forms of Trypanosoma cruzi Y assessed as effect on reactive oxygen species level at IC50 for 2 hrs by fluorimetric microplate reader method. Format: functional, organism-based.
The subject of data set [8] is Cell membrane. As to the kind of experiment: Induction of cell membrane permeability in trypomastigote forms of Trypanosoma Cruzi Y at IC50 measured after 80 mins by SYSTOX Green assay. Format: subcellular.
In data set [9] the test system is Trypanosoma cruzi. As to the kind of experiment: Antitrypanosomal activity against Trypanosoma cruzi Y assessed as increase in calcium level at IC50 measured upto 160 min by Fluo-4 AM probe-based spectrofluorimetric method. The format is functional, organism-based. The note with it: time min <=160.
The subject of data set [10] is Trypanosoma cruzi. In words: Antitrypanosomal activity against trypomastigote forms of Trypanosoma cruzi Y assessed as increase in ATP levels at IC50 incubated for 2 hrs by microplate reader method. The format is functional, organism-based.
Data set [11] relates to Trypanosoma cruzi. In words: Antitrypanosomal activity against trypomastigote forms of Trypanosoma cruzi Y assessed as increase in ATP levels at IC50 incubated for 1 hrs by microplate reader method. The format is functional, organism-based.
Data set [12] relates to Cell membrane. As to the kind of experiment: Induction of cell membrane permeability in trypomastigote forms of Trypanosoma Cruzi Y at IC50 measured after 120 mins by SYSTOX Green assay. The format is subcellular.

Calls of active or inactive are those of the source. The rule behind the calls is not given here.

Chain of Cytochrome P450 2C9 (P11712 whole entry): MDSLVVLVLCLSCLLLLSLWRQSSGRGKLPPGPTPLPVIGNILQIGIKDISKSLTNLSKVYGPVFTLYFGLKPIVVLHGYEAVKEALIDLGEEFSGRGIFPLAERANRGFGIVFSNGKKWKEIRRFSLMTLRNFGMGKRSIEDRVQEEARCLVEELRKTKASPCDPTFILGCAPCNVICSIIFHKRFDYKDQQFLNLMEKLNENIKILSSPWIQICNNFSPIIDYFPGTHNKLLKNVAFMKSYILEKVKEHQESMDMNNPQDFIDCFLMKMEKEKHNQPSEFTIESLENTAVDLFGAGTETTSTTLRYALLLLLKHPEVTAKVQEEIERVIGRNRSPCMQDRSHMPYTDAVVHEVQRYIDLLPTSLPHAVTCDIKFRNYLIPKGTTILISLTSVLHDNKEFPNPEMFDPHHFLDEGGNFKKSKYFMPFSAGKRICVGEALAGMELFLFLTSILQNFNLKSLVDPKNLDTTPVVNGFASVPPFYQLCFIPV
Chain of Cytochrome P450 3A4 (P08684 whole entry): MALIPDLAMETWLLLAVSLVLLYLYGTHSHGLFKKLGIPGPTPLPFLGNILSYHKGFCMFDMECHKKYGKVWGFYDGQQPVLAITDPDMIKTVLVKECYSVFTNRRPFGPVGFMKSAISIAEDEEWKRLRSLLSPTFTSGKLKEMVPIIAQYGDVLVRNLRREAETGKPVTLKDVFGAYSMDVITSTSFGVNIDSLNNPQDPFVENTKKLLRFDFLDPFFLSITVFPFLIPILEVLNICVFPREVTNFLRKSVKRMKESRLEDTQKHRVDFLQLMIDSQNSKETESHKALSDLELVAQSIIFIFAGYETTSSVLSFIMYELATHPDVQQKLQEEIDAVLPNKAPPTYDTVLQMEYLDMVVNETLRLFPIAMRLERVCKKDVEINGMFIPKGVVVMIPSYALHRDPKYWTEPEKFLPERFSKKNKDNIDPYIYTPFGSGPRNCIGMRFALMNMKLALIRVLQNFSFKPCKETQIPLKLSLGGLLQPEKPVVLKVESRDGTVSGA
Chain of Cytochrome P450 2D6 (P10635 whole entry): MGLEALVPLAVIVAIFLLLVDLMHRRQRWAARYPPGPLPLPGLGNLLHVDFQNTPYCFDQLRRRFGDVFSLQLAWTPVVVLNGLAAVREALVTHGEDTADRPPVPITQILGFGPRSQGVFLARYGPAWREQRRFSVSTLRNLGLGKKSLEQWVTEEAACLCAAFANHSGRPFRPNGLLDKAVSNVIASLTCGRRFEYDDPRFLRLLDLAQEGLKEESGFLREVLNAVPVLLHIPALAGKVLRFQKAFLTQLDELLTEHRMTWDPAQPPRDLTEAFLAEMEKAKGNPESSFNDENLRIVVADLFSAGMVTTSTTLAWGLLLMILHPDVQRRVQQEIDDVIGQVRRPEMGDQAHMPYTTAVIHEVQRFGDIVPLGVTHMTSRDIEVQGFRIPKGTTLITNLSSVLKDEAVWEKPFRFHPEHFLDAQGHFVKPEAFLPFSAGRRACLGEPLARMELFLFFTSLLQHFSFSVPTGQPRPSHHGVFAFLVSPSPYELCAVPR
Chain of Cytochrome P450 2C19 (P33261 whole entry): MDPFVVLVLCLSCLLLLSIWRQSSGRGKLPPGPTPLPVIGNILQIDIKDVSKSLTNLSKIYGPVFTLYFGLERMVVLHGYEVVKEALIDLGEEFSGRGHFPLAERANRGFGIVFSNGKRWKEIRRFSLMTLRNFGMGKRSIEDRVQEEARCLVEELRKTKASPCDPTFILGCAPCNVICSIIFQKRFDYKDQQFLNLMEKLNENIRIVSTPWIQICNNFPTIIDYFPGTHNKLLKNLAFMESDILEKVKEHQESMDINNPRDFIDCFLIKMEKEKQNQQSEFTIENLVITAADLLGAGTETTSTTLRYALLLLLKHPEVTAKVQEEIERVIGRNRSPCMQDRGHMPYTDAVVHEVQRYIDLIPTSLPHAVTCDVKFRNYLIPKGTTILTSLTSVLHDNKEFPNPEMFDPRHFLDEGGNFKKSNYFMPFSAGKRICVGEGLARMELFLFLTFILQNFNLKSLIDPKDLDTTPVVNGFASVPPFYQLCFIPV

For the compound `CCCCCCCCCCCCCCC/C=C1/C[C@H](CO)OC1=O`, the selectivity ratio in data set [1] is 17.8. Moreover, the CC50 at 48 h in data set [2] is 71.2 µM. Moreover, the IC50 in the data set on Trypanosoma cruzi [3] was 4 µM. Besides, the “inhibition (INH)” value against Cytochrome P450 2C19, against Cytochrome P450 2C9, against Cytochrome P450 2D6, against Cytochrome P450 3A4 and against Cytochrome P450 1A2 was “Active” in each case. Moreover, the result in the data set with Cell membrane [4] was Active.

`CCCCCCCCCCCCCCCCCCCCC/C=C1/C[C@H](CO)OC1=O`: the selectivity ratio in data set [1] was more than 95.2. The CC50 at 48 h in data set [2] was more than 200 µM. Also, the outcome in the data set with Trypanosoma cruzi [5], in the data set with Trypanosoma cruzi [6], with Cell membrane [4], in the data set with Cell membrane [8] and with Trypanosoma cruzi [9] was Active. Moreover, in the data set with Trypanosoma cruzi [3], the IC50 is 2.1 µM. For the same compound, the “inhibition (INH)” value at Cytochrome P450 2C19, against Cytochrome P450 2C9, on Cytochrome P450 2D6, against Cytochrome P450 3A4 and against Cytochrome P450 1A2 was “Not Active” in each case. Further, the outcome in the data set with Trypanosoma cruzi [7], with Trypanosoma cruzi [10], in the data set on Trypanosoma cruzi [11] and in the data set with Cell membrane [12] was inactive.

Consider `O=C(Cn1ccnc1[N+](=O)[O-])NCc1ccccc1` [BENZNIDAZOLE], for which, in data set [1], the selectivity ratio was more than 12.2. Further, in data set [2], the CC50 at 48 h was more than 200 µM. Besides, the IC50 in the data set with Trypanosoma cruzi [3] came out at 16.4 µM.

For `C=CCCCCCCCCCCCCC/C=C1/C[C@H](CO)OC1=O`, the selectivity ratio in [1] is more than 15.3. Further, the CC50 at 48 h in data set [2] is more than 200 µM. For the same compound, the outcome in the data set with Trypanosoma cruzi [5], in the data set on Trypanosoma cruzi [6], in the data set on Cell membrane [4], in the data set with Cell membrane [8], with Trypanosoma cruzi [9] and in the data set on Trypanosoma cruzi [11] was Active. Further, the IC50 with Trypanosoma cruzi [3] is 13.1 µM. Further, the “inhibition (INH)” value against Cytochrome P450 2C19, against Cytochrome P450 2C9, at Cytochrome P450 2D6, at Cytochrome P450 3A4 and on Cytochrome P450 1A2 was “Active” throughout. Besides, the outcome in the data set on Trypanosoma cruzi [7] and with Cell membrane [12] was inactive.
